Experimental data as given in PubChem BioAssay (NCI).
“And” between values parts separate entries of the source, which are not always exact repeats. Equal entries are not always repeated.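 The compound was tested at five concentrations on cells cultured in 96-well plates, with a 48-hour exposure period. The concentration for 50% growth inhibition is given as GI50. TGI denotes the concentration required for complete inhibition of growth.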

Columns and labels:
Test in all cases: growth of human tumour cells (NCI), 48 h
[1] = tested on: IGROV1 ovarian
[2] = tested on: HL-60(TB) leukemia
[3] = tested on: EKVX NSCLC
[4] = tested on: NCI-H226 lung
[5] = tested on: OVCAR-3 ovarian
[6] = tested on: M14 melanoma
[7] = tested on: SF-268 CNS
[8] = tested on: SK-OV-3 ovarian
[9] = tested on: NCI-H460 lung
[10] = tested on: HOP-62 NSCLC
[11] = tested on: NCI/ADR-RES ovarian
[12] = tested on: OVCAR-5 ovarian
[13] = tested on: ACHN renal
[14] = tested on: T-47D breast
[15] = tested on: MDA-MB-231 breast
[16] = tested on: PC-3 prostate
[17] = tested on: SNB-19 CNS
[18] = tested on: TK-10 renal
[19] = tested on: RPMI-8226 leukemia
[20] = tested on: MCF7 breast
[21] = tested on: 786-0 renal
[22] = tested on: RXF 393 renal
[23] = tested on: SN12C renal
[24] = tested on: HOP-92 NSCLC
[25] = tested on: HCC-2998 colon
[26] = tested on: KM12 colon
[27] = tested on: OVCAR-8 ovarian
[28] = tested on: HCT-15 colon
[29] = tested on: MALME-3M melanoma
[30] = tested on: SW-620 colon
[31] = tested on: LOX IMVI melanoma
[32] = tested on: SF-295 CNS
[33] = tested on: NCI-H23 lung
[34] = tested on: COLO 205 colon
[35] = tested on: MOLT-4 leukemia
[36] = tested on: NCI-H522 lung
[37] = tested on: UACC-62 melanoma
[38] = tested on: U251 CNS
[39] = tested on: A498 renal
[40] = tested on: SK-MEL-2 melanoma
[41] = tested on: MDA-MB-435
[42] = tested on: HCT-116 colon
[43] = tested on: SK-MEL-5 melanoma
[44] = tested on: DU-145 prostate
[45] = tested on: K-562 leukemia
[46] = tested on: BT-549 breast
[47] = tested on: HT29 colon
[48] = tested on: SF-539 CNS
[49] = tested on: MDA-N
[50] = tested on: UO-31 renal
[51] = tested on: HS 578T breast

COc1cc2c3c(n(CCCNCCO)c(=O)c2cc1OC)-c1cc2c(cc1C3=O)OCO2
TGI [1]: 2.38 µM | GI50 [2]: < 0.0277 µM | GI50 [3]: 0.257 µM and 0.557 µM | TGI [3]: 1.22 µM | GI50 [4]: 0.0474 µM | TGI [4]: 1.46 µM and 0.269 µM | TGI [5]: 5.3 µM | GI50 [6]: 0.0575 µM | TGI [6]: 0.573 µM and 0.679 µM | GI50 [7]: < 0.01 µM | TGI [7]: 0.448 µM | GI50 [8]: 0.603 µM and 0.663 µM | TGI [8]: 2.15 µM and 19 µM | TGI [9]: 0.23 µM and 0.0797 µM | GI50 [10]: 0.0127 µM and 0.0979 µM | GI50 [11]: 0.295 µM | TGI [11]: > 100 µM | GI50 [12]: 14.4 µM | TGI [13]: 0.176 µM and 0.369 µM | TGI [14]: 1.52 µM | GI50 [15]: 1.09 µM | TGI [15]: 2.03 µM and 5.18 µM | GI50 [16]: 10.2 µM | TGI [17]: > 100 µM | TGI [18]: 28.5 µM | GI50 [19]: 0.173 µM | TGI [19]: > 100 µM | TGI [20]: 0.155 µM and 0.113 µM | TGI [21]: 0.118 µM and 0.0216 µM | GI50 [22]: 0.139 µM and 0.268 µM | TGI [22]: 1.26 µM and 5.75 µM | GI50 [23]: < 0.0119 µM | TGI [23]: 1.19 µM | GI50 [24]: 0.831 µM and 0.102 µM | TGI [24]: 2.77 µM and 3.56 µM | GI50 [25]: 0.978 µM | TGI [25]: 1.97 µM and 11.1 µM | GI50 [26]: 3.16 µM | TGI [27]: 5.34 µM | GI50 [28]: 0.548 µM and 0.657 µM | TGI [28]: 2.08 µM and 7.76 µM | GI50 [29]: 0.252 µM and 0.143 µM | TGI [29]: 4.06 µM and 2 µM | GI50 [30]: 0.0228 µM | TGI [30]: 2.6 µM and 2.03 µM | TGI [31]: 0.169 µM | GI50 [32]: < 0.0188 µM | TGI [32]: 1.29 µM and 4.27 µM | GI50 [33]: 0.0437 µM | TGI [33]: 0.171 µM and 0.493 µM | TGI [34]: 2 µM and 5.42 µM | TGI [35]: 0.0279 µM | GI50 [36]: 0.0144 µM | TGI [36]: 0.966 µM and 3.8 µM | GI50 [37]: 0.0394 µM | TGI [37]: 0.842 µM and 0.779 µM | GI50 [38]: 0.0191 µM and < 0.0383 µM | TGI [38]: 1.09 µM and 1.62 µM | GI50 [39]: 0.033 µM | TGI [39]: 1.87 µM and 1.49 µM | GI50 [40]: 2.55 µM and 10.9 µM | TGI [40]: 5.84 µM and 23.7 µM | GI50 [41]: 0.528 µM and 1.34 µM | GI50 [42]: 0.0662 µM and 0.0639 µM | TGI [42]: 1.05 µM and 0.686 µM | TGI [43]: 1.51 µM and 1.56 µM | GI50 [44]: 0.0299 µM | GI50 [45]: 2.16 µM and 0.511 µM | TGI [45]: > 100 µM | TGI [46]: 7.97 µM | GI50 [47]: 0.0502 µM | TGI [47]: 0.589 µM | TGI [48]: 1.36 µM | GI50 [49]: 2.3 µM | GI50 [50]: 0.0183 µM and 0.181 µM | TGI [51]: 27.3 µM
